Data from patent publication US10759766B2, “Certain chemical entities, compositions, and methods” (NeuPharma, Inc., priority 2011, dated 2020).

Experiments:
[1] = biological target: BRAF V600E (Homo sapiens (Human), UniProt P15056, V600E); test: Z′-LYTE kinase inhibition assay (Invitrogen), BRAF V600E; format: biochemical; conditions: 1 μM compound, Z′-LYTE method; read-out: % inhibition at 1 μM against BRAF V600E
Procedure: (§1) Inhibitory activities Inhibitory activities of compounds against BRAF, and BRAF V600E were measured by Invitrogen using Z′-LYTE® Method as briefly described in the following. 4× Test compounds are dissolved in 1% DMSO. […] ATP solutions are diluted to a 4×ATP working concentration in Kinase Buffer (50 mM HEPES pH 7.5, 0.01% BRIJ-35, 10 mM MgCl2, 1 mM EGTA). Reaction started by 30-second shaking of mixture consisting of 2.5 μL 4× test compound, […] and 2.5 μL 4×ATP Solution on Bar-coded Corning, low volume NBS, black 384-well plate (Corning Cat. #3676). Then the mixture was incubated for 60-minute at room temperature for the kinase reaction, followed by addition of 5 μL of a 1:1024 dilution of development reagent A and 30-second plate shake. The mixture was then incubated for another 60-minute at room temperature for development reaction. Fluorescence was read by plate reader. IC50 was calculated by plotting the concentration of compound vs the percentage of inhibition in treated wells using GraphPad Prism 5.
The scale utilized in Table 3 is as follows: +++ less than 100 nM; and ++ greater than 100 nM.

[2] = biological target: KDR (VEGFR2) (Homo sapiens (Human), UniProt P35968); test: Z′-LYTE kinase inhibition assay (Invitrogen), KDR; format: biochemical; conditions: Z′-LYTE method; for inhibition at 1 µM: 1 μM compound, read-out: % inhibition at 1 μM against KDR
Sequence of KDR (VEGFR2) (P35968 20-1356): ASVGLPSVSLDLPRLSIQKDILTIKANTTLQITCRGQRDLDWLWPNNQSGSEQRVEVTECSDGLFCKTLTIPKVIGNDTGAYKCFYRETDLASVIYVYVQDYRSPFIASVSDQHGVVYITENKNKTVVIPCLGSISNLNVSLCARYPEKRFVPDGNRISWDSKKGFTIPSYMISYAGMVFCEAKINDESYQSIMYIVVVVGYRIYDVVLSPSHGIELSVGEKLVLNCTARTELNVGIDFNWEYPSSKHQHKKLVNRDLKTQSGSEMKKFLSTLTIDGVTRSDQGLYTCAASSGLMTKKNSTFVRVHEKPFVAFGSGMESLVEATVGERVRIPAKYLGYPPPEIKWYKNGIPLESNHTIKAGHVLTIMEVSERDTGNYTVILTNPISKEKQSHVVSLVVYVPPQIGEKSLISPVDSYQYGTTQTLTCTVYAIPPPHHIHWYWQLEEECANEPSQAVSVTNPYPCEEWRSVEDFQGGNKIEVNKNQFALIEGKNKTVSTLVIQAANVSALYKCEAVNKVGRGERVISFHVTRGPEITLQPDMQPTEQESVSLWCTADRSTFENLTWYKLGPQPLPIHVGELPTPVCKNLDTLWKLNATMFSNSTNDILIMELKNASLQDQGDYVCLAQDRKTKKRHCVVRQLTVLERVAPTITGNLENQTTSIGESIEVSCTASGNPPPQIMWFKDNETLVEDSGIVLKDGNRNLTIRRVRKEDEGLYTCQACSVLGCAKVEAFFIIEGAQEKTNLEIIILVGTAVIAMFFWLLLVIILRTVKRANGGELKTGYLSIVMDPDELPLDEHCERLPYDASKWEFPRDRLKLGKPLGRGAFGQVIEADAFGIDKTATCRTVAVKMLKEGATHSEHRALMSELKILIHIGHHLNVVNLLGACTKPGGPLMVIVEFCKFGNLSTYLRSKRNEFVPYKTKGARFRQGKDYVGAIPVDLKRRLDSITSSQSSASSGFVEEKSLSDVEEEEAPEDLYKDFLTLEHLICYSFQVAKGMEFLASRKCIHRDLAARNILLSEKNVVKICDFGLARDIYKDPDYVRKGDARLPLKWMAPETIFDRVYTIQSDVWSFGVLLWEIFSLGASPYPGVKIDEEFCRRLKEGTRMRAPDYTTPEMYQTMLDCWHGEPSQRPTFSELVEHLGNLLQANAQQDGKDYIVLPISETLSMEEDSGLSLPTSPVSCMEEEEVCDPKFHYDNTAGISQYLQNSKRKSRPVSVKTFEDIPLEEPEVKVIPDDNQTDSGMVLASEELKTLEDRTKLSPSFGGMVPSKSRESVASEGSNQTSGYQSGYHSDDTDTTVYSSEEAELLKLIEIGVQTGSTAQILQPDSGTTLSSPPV
Procedure: as §1
Inhibitory activities of compounds against KDR (VEGFR2) were also measured by Invitrogen using Z′-LYTE® Method as described above with the following modification. The 2× KDR (VEGFR2)/Tyr 01 mixture is prepared in 50 mM HEPES pH 7.5, 0.01% BRIJ-35, 10 mM MgCl2, 1 mM EGTA. The final 10 μL Kinase Reaction consists of 0.5-11.7 ng KDR (VEGFR2) and 2 μM Tyr 01 in 50 mM HEPES pH 7.5, 0.01% BRIJ-35, 10 mM MgCl2, 1 mM EGTA. After the 1 hour Kinase Reaction incubation, 5 μL of a 1:256 dilution of Development Reagent B is added.
The scale utilized in Table 5 is as follows: +++ less than 100 nM; and ++ greater than 100 nM

[3] = system: A375 cells; test: Inhibition of cancer cell growth, MTT assay, A375; format: cell-based; conditions: Homo sapiens, A-375, 72 h exposure
Procedure: (§2) Inhibition of cell growth by compounds was measured using MTT assay (Mosmann, T., Journal of Immunological Methods, 1983, 65, 55-63). Tumor cell lines were purchased from ATCC (American Type Culture Collection, Manassas, Va.). All cell lines were maintained in RPMI 1640 (Hyclone) supplemented with 10% fetal bovine serum (FBS, Hyclone), glutamine (2 mM, Hyclone), and antibiotics (penicillin 100 U/mL and streptomycin 50 μg/mL) at 37° C. in a humidified atmosphere of 5% CO2 in air. Taxol (as a positive control, Sigma) and compounds were dissolved in DMSO (Sigma), and the final concentration of DMSO in the medium was 1%. Tumor cells were plated in 96-well plates at densities of about 4000 cells/well of a 96-well plate and allowed to adhere/grow for 24 h. They were then treated with various concentrations of drug for 72 h. 3-(4,5-Dimethylthiazol-2-yl)-2,5-diphenyltetrazolium bromide (MTT, Sigma) was used to determine the number of viable cells at the time of compound addition and the number of cells remaining after 72 h compound exposure. The number of cells remaining after 72 h was compared to the number of viable cells at the time of compound addition by measuring the absorbance at 570 nm, allowing for the calculation of growth inhibition.
(§3) All concentrations of compounds were tested in triplicate and controls were averaged over 4 wells. IC50 was calculated by plotting the concentration of compound vs the percentage of inhibition in treated wells using GraphPad Prism 5. […] The scale utilized in Table 6 is as follows: +++ less than 1000 nM; ++ between 1000 nM and 5000 nM; and + greater than 5000 nM. The scale utilized in Table 7 is as follows: +++ less than 2000 nM; ++ between 2000 nM and 5000 nM; and + greater than 5000 nM.

[4] = system: A549 cells; test: Inhibition of cancer cell growth, MTT assay, A549; format: cell-based; conditions: Homo sapiens, A549, 72 h exposure
Procedure: as §2, §3

Sequence of BRAF V600E (P15056 whole entry V600E): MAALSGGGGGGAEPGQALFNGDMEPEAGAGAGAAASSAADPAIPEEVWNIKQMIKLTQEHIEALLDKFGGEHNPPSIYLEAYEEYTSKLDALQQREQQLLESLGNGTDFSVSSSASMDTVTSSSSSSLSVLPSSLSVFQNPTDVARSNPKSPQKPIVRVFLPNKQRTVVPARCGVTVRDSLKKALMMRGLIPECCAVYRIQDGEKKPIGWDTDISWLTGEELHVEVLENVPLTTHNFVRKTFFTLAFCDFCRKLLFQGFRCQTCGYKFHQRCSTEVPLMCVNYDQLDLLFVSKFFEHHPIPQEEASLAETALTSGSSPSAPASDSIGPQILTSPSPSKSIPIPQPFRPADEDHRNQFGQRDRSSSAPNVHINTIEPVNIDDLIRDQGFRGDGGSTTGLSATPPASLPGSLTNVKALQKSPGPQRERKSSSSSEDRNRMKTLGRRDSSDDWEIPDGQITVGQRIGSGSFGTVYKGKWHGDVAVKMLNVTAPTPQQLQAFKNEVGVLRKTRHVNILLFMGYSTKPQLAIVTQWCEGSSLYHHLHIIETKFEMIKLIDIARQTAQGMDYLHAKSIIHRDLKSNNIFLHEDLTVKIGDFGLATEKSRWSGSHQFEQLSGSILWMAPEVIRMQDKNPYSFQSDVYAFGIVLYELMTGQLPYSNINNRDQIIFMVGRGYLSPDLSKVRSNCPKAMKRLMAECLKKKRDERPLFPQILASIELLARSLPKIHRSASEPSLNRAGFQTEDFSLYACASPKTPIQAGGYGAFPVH

| SMILES | inhibition at 1 µM [1] | inhibition at 1 µM [2] | IC50 [3] | IC50 [4] | IC50 ([2]; read-out: IC50 against KDR) |
| --- | --- | --- | --- | --- | --- |
| O=C(Nc1cc(F)cc(C(=O)c2ccc3nccnc3c2)c1)c1cccc(F)c1 [Compound C125, 3-fluoro-N-(3-fluoro-5-(quinoxaline-6-carbonyl)phenyl)benzamide] | < 70% | < 70% | > 5 µM | > 5 µM | – |
| O=C(Nc1cccc(Cl)c1)Nc1ccc(F)c(C(=O)c2ccc3ncc(N4CCOCC4)nc3c2)c1 [Compound C056, 1-(3-chlorophenyl)-3-(4-fluoro-3-(3-morpholinoquinoxaline-6-carbonyl)phenyl)urea] | > 89% | > 89% | < 1 µM | 2 to 5 µM | – |
| O=C(Nc1cccc(C(=O)c2ccc3ncc(N4CCCC4)nc3c2)c1)Nc1ccc(Cl)c(C(F)(F)F)c1 [Compound C021, 1-(4-chloro-3-(trifluoromethyl)phenyl)-3-(3-(3-(pyrrolidin-1-yl)quinoxaline-6-carbonyl)phenyl)urea] | 70 to 89% | > 89% | 1 to 5 µM | > 5 µM | – |
| O=C(Nc1ccc(Cl)c(C(F)(F)F)c1)Nc1cc(F)c(F)c(C(=O)c2ccc3ncc(N4CCOCC4)nc3c2)c1F [Compound C032, 1-(4-chloro-3-(trifluoromethyl)phenyl)-3-(2,4,5-trifluoro-3-(3-morpholinoquinoxaline-6-carbonyl)phenyl)urea] | < 70% | < 70% | 1 to 5 µM | 2 to 5 µM | – |
| O=C(Nc1cc(F)c(F)c(C(=O)c2ccc3nccnc3c2)c1)c1ccc(Cl)c(C(F)(F)F)c1 [Compound C129, 4-chloro-N-(3,4-difluoro-5-(quinoxaline-6-carbonyl)phenyl)-3-(trifluoromethyl)benzamide] | > 89% | 70 to 89% | 1 to 5 µM | > 5 µM | – |
| O=C(Nc1cccc(F)c1)Nc1ccc(F)c(C(=O)c2ccc3ncc(N4CCNCC4)nc3c2)c1 [Compound C084, 1-(4-fluoro-3-(3-(piperazin-1-yl)quinoxaline-6-carbonyl)phenyl)-3-(3-fluorophenyl)urea] | > 89% | > 89% | < 1 µM | 2 to 5 µM | – |
| O=C(Nc1ccc(Cl)cc1)Nc1ccc(F)c(C(=O)c2ccc3nccnc3c2)c1 [Compound C074, 1-(4-chlorophenyl)-3-(4-fluoro-3-(quinoxaline-6-carbonyl)phenyl)urea] | > 89% | < 70% | 1 to 5 µM | > 5 µM | – |
| NCCNc1cnc2ccc(C(=O)c3cc(NC(=O)Nc4cc(F)cc(F)c4)ccc3F)cc2n1 [Compound C092, 1-(3-(3-((2-aminoethyl)amino)quinoxaline-6-carbonyl)-4-fluorophenyl)-3-(3,5-difluorophenyl)urea] | > 89% | 70 to 89% | 1 to 5 µM | > 5 µM | – |
| O=C(Nc1cc(F)c(F)c(C(=O)c2ccc3nccnc3c2)c1F)c1ccc(Cl)c(C(F)(F)F)c1 [Compound C140, 4-chloro-N-(2,4,5-trifluoro-3-(quinoxaline-6-carbonyl)phenyl)-3-(trifluoromethyl)benzamide] | 70 to 89% | < 70% | > 5 µM | > 5 µM | – |
| O=C(Nc1cccc(C(=O)c2ccc3ncc(N4CCOCC4)nc3c2)c1)c1ccc(Cl)c(C(F)(F)F)c1 [Compound C120, 4-chloro-N-(3-(3-morpholinoquinoxaline-6-carbonyl)phenyl)-3-(trifluoromethyl)benzamide] | > 89% | 70 to 89% | 1 to 5 µM | 2 to 5 µM | – |
| O=C(Nc1cc(F)cc(Cl)c1)Nc1cc(F)cc(C(=O)c2ccc3nccnc3c2)c1 [Compound C062, 1-(3-chloro-5-fluorophenyl)-3-(3-fluoro-5-(quinoxaline-6-carbonyl)phenyl)urea] | > 89% | < 70% | > 5 µM | 2 to 5 µM | – |
| O=C(Nc1ccc(F)c(C(=O)c2ccc3nccnc3c2)c1)c1cccc(F)c1 [Compound C115, 3-fluoro-N-(4-fluoro-3-(quinoxaline-6-carbonyl)phenyl)benzamide] | > 89% | 70 to 89% | > 5 µM | > 5 µM | – |
| O=C(Nc1cccc(C(=O)c2ccc3ncc(N4CCOCC4)nc3c2)c1)c1cccc(F)c1 [Compound C118, 3-fluoro-N-(3-(3-morpholinoquinoxaline-6-carbonyl)phenyl)benzamide] | > 89% | 70 to 89% | 1 to 5 µM | 2 to 5 µM | – |
| O=C(Nc1ccc(F)c(C(=O)c2ccc3ncc(N4CCNCC4)nc3c2)c1)Nc1ccc(Cl)c(C(F)(F)F)c1 [Compound C086] | > 89% | > 89% | < 1 µM | 2 to 5 µM | < 0.1 µM |
| O=C(Nc1cccc(F)c1)Nc1cc(F)c(F)c(C(=O)c2ccc3ncc(N4CCOCC4)nc3c2)c1F [Compound C033, 1-(3-fluorophenyl)-3-(2,4,5-trifluoro-3-(3-morpholinoquinoxaline-6-carbonyl)phenyl)urea] | 70 to 89% | < 70% | 1 to 5 µM | 2 to 5 µM | – |
| O=C(Nc1ccc(Cl)cc1)Nc1cc(F)cc(C(=O)c2ccc3nccnc3c2)c1 [Compound C063, 1-(4-chlorophenyl)-3-(3-fluoro-5-(quinoxaline-6-carbonyl)phenyl)urea] | > 89% | < 70% | 1 to 5 µM | > 5 µM | – |
| O=C(Nc1cc(F)c(F)c(C(=O)c2ccc3ncc(N4CCOCC4)nc3c2)c1F)c1ccc(Cl)c(C(F)(F)F)c1 [Compound C139] | < 70% | < 70% | > 5 µM | > 5 µM | – |
| O=C(Nc1cccc(F)c1)Nc1cc(F)c(F)c(C(=O)c2ccc3nccnc3c2)c1 [Compound C024, 1-(3,4-difluoro-5-(quinoxaline-6-carbonyl)phenyl)-3-(3-fluorophenyl)urea] | > 89% | 70 to 89% | > 5 µM | < 2 µM | – |
| O=C(Nc1cccc(F)c1)Nc1cc(F)cc(C(=O)c2ccc3ncc(N4CCOCC4)nc3c2)c1 [Compound C037, 1-(3-fluoro-5-(3-morpholinoquinoxaline-6-carbonyl)phenyl)-3-(3-fluorophenyl)urea] | > 89% | < 70% | 1 to 5 µM | > 5 µM | – |
| O=C(Nc1ccc(F)cc1)Nc1cc(F)cc(C(=O)c2ccc3ncc(N4CCOCC4)nc3c2)c1 [Compound C043, 1-(3-fluoro-5-(3-morpholinoquinoxaline-6-carbonyl)phenyl)-3-(4-fluorophenyl)urea] | > 89% | < 70% | > 5 µM | > 5 µM | – |
| O=C(Nc1cccc(Cl)c1)Nc1cc(F)cc(C(=O)c2ccc3nccnc3c2)c1 [Compound C068, 1-(3-chlorophenyl)-3-(3-fluoro-5-(quinoxaline-6-carbonyl)phenyl)urea] | > 89% | < 70% | > 5 µM | > 5 µM | – |
